{"source": "paper PMC10056986", "about": "(Pharmaceuticals, 2023)", "key": {"M3": {"target": "M3 (Homo sapiens, UniProt P20309)", "sequence (P20309 whole entry)": "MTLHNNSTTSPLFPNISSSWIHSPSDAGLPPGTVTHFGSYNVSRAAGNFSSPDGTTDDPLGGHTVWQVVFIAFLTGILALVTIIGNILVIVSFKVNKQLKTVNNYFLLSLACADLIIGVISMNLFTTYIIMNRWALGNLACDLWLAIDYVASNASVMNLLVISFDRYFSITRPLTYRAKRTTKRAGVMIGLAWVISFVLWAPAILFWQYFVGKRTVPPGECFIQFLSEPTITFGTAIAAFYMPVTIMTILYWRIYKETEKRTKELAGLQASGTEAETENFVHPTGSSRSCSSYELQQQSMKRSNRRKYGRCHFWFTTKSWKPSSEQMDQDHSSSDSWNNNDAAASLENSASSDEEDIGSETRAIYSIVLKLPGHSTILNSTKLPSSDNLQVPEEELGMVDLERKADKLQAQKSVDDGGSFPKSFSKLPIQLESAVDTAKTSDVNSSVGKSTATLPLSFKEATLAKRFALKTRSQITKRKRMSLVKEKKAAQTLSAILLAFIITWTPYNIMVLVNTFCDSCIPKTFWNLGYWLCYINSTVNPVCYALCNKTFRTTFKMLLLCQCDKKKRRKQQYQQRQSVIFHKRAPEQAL", "assay": "cell-based"}, "Influenza virus B/Lee/40": {"test_system": "Influenza virus B/Lee/40", "assay": "microbe, parasite or virus in culture", "type": "cell-based", "settings": "MDCK, read-out: EC50 (mean ± SD)"}, "CB2": {"target": "CB2 (Homo sapiens, UniProt P34972)", "sequence (P34972 whole entry)": "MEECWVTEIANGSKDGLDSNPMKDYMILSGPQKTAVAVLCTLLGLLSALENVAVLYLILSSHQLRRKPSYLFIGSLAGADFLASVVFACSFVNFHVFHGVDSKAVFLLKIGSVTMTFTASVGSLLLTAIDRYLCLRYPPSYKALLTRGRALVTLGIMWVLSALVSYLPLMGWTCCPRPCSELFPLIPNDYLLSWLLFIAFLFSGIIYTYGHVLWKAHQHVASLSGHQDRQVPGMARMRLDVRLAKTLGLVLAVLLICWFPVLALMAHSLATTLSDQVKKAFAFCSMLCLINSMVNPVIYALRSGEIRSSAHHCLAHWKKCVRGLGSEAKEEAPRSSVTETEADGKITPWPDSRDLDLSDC", "assay": "cell-based"}, "[1]": {"target": "influenza virus polymerase (PB1, PB2, NP, PA from A/California/04/2009 (H1N1) pdm09) (Influenza A virus, UniProt C3W5R8+C3W5R9)", "type": "cell-based"}, "22 GPCR targets": {"test_system": "22 GPCR targets", "type": "cell-based, human", "settings": "read-out: IC50 (antagonist screening)"}, "[2]": {"settings": "rat, in vivo, 15 mg/kg"}}, "note": "Read-outs that look alike come from different tables or passages of the source.", "data": [{"molecule": "O=C(O)[C@H]1C2CCC(CC2)[C@@H]1Nc1nc(-c2n[nH]c3ncc(F)cc23)nc(C2CC2)c1F", "note": "[ZSP1273]", "values": [{"measurement": "EC50", "setting": "M3", "result": "> 12000", "unit": "nM"}, {"measurement": "Activity at Maximum Concentration (%)", "setting": "M3; 12,000 nM", "result": "−2.89", "unit": "%"}, {"measurement": "EC50", "setting": "Influenza virus B/Lee/40", "result": "> 1", "unit": "nM"}, {"measurement": "EC50", "setting": "CB2", "result": "> 12000", "unit": "nM"}, {"measurement": "Activity at Maximum Concentration (%)", "setting": "CB2; 12,000 nM", "result": "−17.1", "unit": "%"}, {"measurement": "IC50", "setting": "[1]; read-out: IC50, Mean ± SEM", "result": "0.562 ± 0.116", "unit": "nM"}, {"measurement": "IC50", "setting": "[1]; read-out: IC50, experiment 1", "result": 0.533, "unit": "nM"}, {"measurement": "IC50", "setting": "[1]; read-out: IC50, experiment 2", "result": 0.464, "unit": "nM"}, {"measurement": "IC50", "setting": "[1]; read-out: IC50, experiment 3", "result": 0.69, "unit": "nM"}, {"measurement": "IC50", "setting": "22 GPCR targets", "result": "> 10000", "unit": "nM"}, {"measurement": "accumulation (AUC0-last and Cmax, day 7 vs day 1)", "setting": "[2]", "result": "No significant accumulation"}]}]}
